Measurements from PMC8369832, “Purification and Characterization of a Thermo- and pH-Stable Laccase From the Litter-Decomposing Fungus Gymnopus luxurians and Laccase Mediator Systems for Dye Decolorization” (Frontiers in Microbiology, 2021).

Tested on: T1, GLL (purified laccase from Gymnopus luxurians)
T1 construct: native extracellular enzyme purified from fermentation broth; monomer, 64 kDa (SDS-PAGE and gel filtration); N-terminus AIGPVTDLHI; gene not cloned; N-terminus very unlike hypothetical G. luxurians laccases KIK69235.1, KIK58304.1, KIK56882.1
Assay: spectrophotometric oxidation at […] nm, Lineweaver-Burk plot
Assay type: biochemical, Collybiopsis luxurians
Details: pH 2.2 (50 mM citric acid-Na2HPO4), 37 °C; ABTS 12.5-800 μM; free enzyme

Km: 539 µM
SMILES: CCn1c(=NN=c2sc3cc(S(=O)(=O)O)ccc3n2CC)sc2cc(S(=O)(=O)O)ccc21 [ABTS, 2,2′-azino-bis(3-ethylbenzothiazoline-6-sulfonic acid)]
